# In PubChem BioAssay AID504816 (The Scripps Research Institute Molecular Screening Center, 2011):
# Active and inactive are the calls of the source.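 How the source made its calls: active means compounds that boost mutant procaspase-3 substrate cleavage with EC50 of 10000 nM or lower; inactive means EC50 above 10000 nM.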
# Target: Caspase-3 (Homo sapiens) (UniProt P42574)
# Experiment: procaspase-3 activation potency, probe candidates – biochemical, absorbance, PC-3 D3A mutant, powder samples, late-stage follow-up (AID 504816)
# Settings: recombinant PC-3 D3A, Ac-DEVD-pNA absorbance 405 nm
# Sequence of Caspase-3 (Homo sapiens) (P42574 whole entry D9A/D28A/D175A): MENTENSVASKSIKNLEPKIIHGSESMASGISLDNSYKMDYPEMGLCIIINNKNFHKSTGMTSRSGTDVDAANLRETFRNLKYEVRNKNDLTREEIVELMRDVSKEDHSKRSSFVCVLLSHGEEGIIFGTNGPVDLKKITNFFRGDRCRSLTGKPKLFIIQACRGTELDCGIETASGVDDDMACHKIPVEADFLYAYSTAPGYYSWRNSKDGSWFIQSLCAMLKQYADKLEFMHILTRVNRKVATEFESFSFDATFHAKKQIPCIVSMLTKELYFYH
row,EC50,Structure (SMILES)
1,> 85.3 µM (inactive),COc1ccccc1Nc1nc2c(C)cccc2cc1C#N
2,inactive,CC(NC(=O)c1cc2cc([N+](=O)[O-])ccc2oc1=O)C1CCCO1 (centres undefined)
3,3.19 µM,C=CCn1c(=NC(=O)c2cc(-c3cccs3)nc3ccccc23)sc2cc(S(N)(=O)=O)ccc21
4,inactive,CC(=O)Oc1cccc2c1C(=O)c1c(OC(C)=O)cc(C(=O)O)cc1C2=O
